Where a name gives a salt, the structure may show the parent alone.
Assays:
[1] = system: soybean (Glycine max) Adelphia; experiment: Dwarfing and stem stiffening of soybeans (plant height, greenhouse, foliar spray); type: in vivo; conditions: three weeks after spraying
Method: (§1) In the following tests, test compounds are dissolved or dispersed in acetone-water (1:1) mixtures at the final concentration corresponding to the kg/ha rates indicated in the table below. The solution also contains 0.25% v/v colloidal BIOFILM® (a product of Colloidal Products Corp.) which is a mixture of alkyl aryl polyethoxyethanol, free and combined fatty acids, glycol ethers, dialkylbenzene carboxylate and 2-propanol.
(§2) The plant species used in these tests are barley (Hordeum vulgare), (Mexico) and soybean (Glycine max)Adelphia.
(§3) The solution or dispersion of the compound under test is sprayed at a rate of 747 l/ha with a moving nozzle along an overhead stationary track. The spray nozzle moves at a constant speed over the plants.
(§4) The plants are grown in plastic pots, and are well established at the time of treatment. The seedlings of barley are 10 to 20 cm in height, while the seedlings of soybeans are at the second to third trifoliate stage. Plants are watered prior to treatment and then sprayed to provide the kg/ha rate of test compound desired. After spraying the plants are placed on greenhouse benches and watered and fertilized in accordance with normal greenhouse procedures.
(§5) Three weeks after spraying the plants are measured and harvested. Harvesting is done at the boot stage. All treatments are replicated six times and comparisons are made against untreated controls. Data obtained are reported in Table VI below as percent reduction in plant height over untreated controls.

[2] = system: soybeans (Glycine max) var. Adelphia; experiment: Increasing flowering of plants (soybeans); type: in vivo, soybean (Glycine max); conditions: three weeks after spraying
Method: In the following tests seedling soybean plants growing in plastic cups are sprayed with aqueous-acetone solutions or dispersions of test compounds when they have reached the 2nd to 3rd trifoliate stage. Test solutions or dispersions are prepared with 0.25 v/v Colloidal BIOFILM® surfactant and sufficient test compound to provide the plants with 0.5, 0.25, 0.125 or 0.06 kg/ha of said compound when the test solutions are sprayed on said plants from an overhead sprayer delivering 747 l/ha of solution.
After spraying the plants are placed on greenhouse benches and watered and fertilized. Three weeks after spraying the plants are examined and the amount of flowering determined for all plants. Data obtained are reported in the table below as percent increase in flowering over untreated controls.
From the data reported in Table VIII below it can be seen that the compounds of the present invention applied at rates of from 0.06 to 0.25 kg/ha enhance flowering of treated plant more than 10% over untreated controls. This response is particularly desirable for treatment of flowering varieties of ornamental plants as well as agronomic crops.

[3] = system: soybeans (Glycine max) Adelphia variety; experiment: Increasing axillary branching and improving the canopy of broad leaf plants (soybeans); type: in vivo, soybean (Glycine max); conditions: three weeks after treatment
Description: In these tests seedling soybean plants approximately three weeks old, and grown in plastic pots to the 2nd to 3rd trifoliate stage, are sprayed with solutions or dispersions of test compound prepared as described in Example 7 above. The same spraying apparatus, described in Example 7 above, is used and after spraying the plants are placed on greenhouse benches and watered and fertilized. Three weeks after treatment the plants are examined to determine what effect the application of test compound has had on the axillary branching and canopy development of the treated plants.
Increased axillary branching and improved canopy are biological responses which are highly advantageous in the growing of ornamental plants. These responses also have advantage in many crops since increased branching may result in the greater production of fruit, while improved canopy tends to shade and suppress the growth of undesirable weeds that compete with the crops for sunlight, water and plant nutrients. Data obtained are reported in table VII below where axillary branching and canopy are reported as percent increase over untreated controls.

barley (Hordeum vulgare) = experiment: Dwarfing of barley (plant height, greenhouse, foliar spray); type: in vivo; conditions: three weeks after spraying
Method: as §1, §2, §3, §4, §5

[4] = rate 0.125 kg/ha, listed as Methylamine salt with 2,4,6-tribromo-N--aci-nitroaniline

SMILES | % Reduction in Plant Height over untreated controls ([1]; rate 0.125 kg/ha) | % Reduction in Plant Height over untreated controls ([1]; rate 0.25 kg/ha) | % Reduction in Plant Height over untreated controls ([1]; rate 0.5 kg/ha) | % Increase in Flowering over untreated controls ([2]; rate 0.125 kg/ha) | % Increase in Plant Canopy over untreated controls ([3]; rate 0.125 kg/ha) | % Increase in axillary branching over untreated controls ([3]; rate 0.125 kg/ha) | % Increase in axillary branching over untreated controls ([3]; rate 0.25 kg/ha) | also measured
O=[N+]([O-])Nc1c(Br)cc(Br)cc1Br [1,1-Dimethylpiperidinium salt with 2,4,6-tribromo-N--aci-nit] [1,1-Dimethylpiperidinium salt with 2,4,6-tribromo-N--aci-nitroaniline] | > 25% | > 35% | > 50% | normal | normal | normal | normal | 
Cn1c(-c2ccccc2)cc(-c2ccccc2)[n+]1C.O=[N+]([O-])[N-]c1c(Br)cc(Br)cc1I [1,2-Dimethyl-3,5-diphenylpyrazolium salt with 2,4-dibromo-6-iodo-N--aci-nitroaniline] | > 10% | > 15% | > 25% |  |  |  |  | % Increase in Flowering over untreated controls ([2]; rate 0.5 kg/ha): normal
O=[N+]([O-])Nc1c(Br)cc(Br)cc1Br [2,4,6-Tribromo-N--nitroaniline tetrabutyl, ammonium salt] |  |  |  |  |  |  |  | % Reduction in Plant Height over untreated controls (barley (Hordeum vulgare); rate 0.17 kg/ha, ammonium salt): 10.5%; % Reduction in Plant Height over untreated controls (barley (Hordeum vulgare); rate 1.5 kg/ha, ammonium salt): 15.8%
O=[N+]([O-])Nc1c(Br)cc(Br)cc1Br [2,4,6-Tribromo-N--nitroaniline with ammonia (1:1)] |  |  | > 60% |  |  |  |  | % Reduction in Plant Height over untreated controls ([1]; rate 2.0 kg/ha): > 60%; % Reduction in Plant Height over untreated controls (barley (Hordeum vulgare); rate 0.50 kg/ha): 16.3%; % Reduction in Plant Height over untreated controls (barley (Hordeum vulgare); rate 1.5 kg/ha): 15.3%; % Increase in Plant Canopy over untreated controls ([3]; rate 0.5 kg/ha): Injury
O=[N+]([O-])Nc1c(Br)cc(Br)cc1Br [2,4,6-Tribromo-N--nitroaniline with dibenzylamine] |  |  |  | normal | normal | normal | normal | 
O=[N+]([O-])Nc1c(Br)cc(Br)cc1Br [2,4,6-Tribromo-N--nitroaniline with dodecylamine] |  |  |  | normal | normal | normal |  | 
O=[N+]([O-])Nc1c(Br)cc(Br)cc1Br [2,4,6-Tribromo-N--nitroaniline with methylamine (1:1)] |  |  | > 60% |  |  |  |  | % Reduction in Plant Height over untreated controls ([1]; rate 2.0 kg/ha): > 60%; % Reduction in Plant Height over untreated controls (barley (Hordeum vulgare); rate 0.11 kg/ha): 10%; % Reduction in Plant Height over untreated controls (barley (Hordeum vulgare); rate 0.56 kg/ha): > 50%; % Reduction in Plant Height over untreated controls (barley (Hordeum vulgare); rate 2.24 kg/ha): > 50%; % Increase in Plant Canopy over untreated controls [3, 4]: normal; % Increase in axillary branching over untreated controls [3, 4]: normal; % Increase in axillary branching over untreated controls ([3]; rate 0.25 kg/ha, listed as Methylamine salt with 2,4,6-tribromo-N--aci-nitroaniline): normal; % Increase in axillary branching over untreated controls ([3]; rate 0.5 kg/ha, listed as Methylamine salt with 2,4,6-tribromo-N--aci-nitroaniline): normal
O=[N+]([O-])Nc1c(Br)cc(Br)cc1Br [2,4,6-Tribromo-N--nitroaniline with octylamine (1:1)] |  |  |  |  |  |  |  | % Reduction in Plant Height over untreated controls (barley (Hordeum vulgare); rate 0.17 kg/ha): 10.5%; % Reduction in Plant Height over untreated controls (barley (Hordeum vulgare); rate 0.50 kg/ha): 13.0%; % Reduction in Plant Height over untreated controls (barley (Hordeum vulgare); rate 1.5 kg/ha): 11.1%; % Increase in axillary branching over untreated controls ([3]; rate 0.125 kg/ha, octylamine salt): normal; % Increase in Plant Canopy over untreated controls ([3]; rate 0.5 kg/ha, octylamine salt): slight reduction
O=[N+]([O-])Nc1c(Br)cc(Br)cc1Br [Methyltriphenyl phosphonium salt with 2,4,6-tribromo-N--aci-] [Methyltriphenyl phosphonium salt with 2,4,6-tribromo-N--aci-nitroaniline] | > 25% | > 35% | > 50% | normal | normal | normal | normal | 
